Results: ChEMBL document CHEMBL4000164, “(+)-and (-)-Phenazocine enantiomers: Evaluation of their dual opioid agonist/σ1 antagonist properties and antinociceptive effects” (Eur J Med Chem, 2017)
The source made the active and inactive calls. The calls are words filed in the database; no cut-off is given here.

Experiments:
[1] = molecular target: Delta-type opioid receptor (Rattus norvegicus, UniProt P33533); test: Displacement of [3H]DPDPE from delta opioid receptor in Sprague-Dawley rat brain membranes by liquid scintillation counter method; type: cell membranes, Membrane
Chain of Delta-type opioid receptor (Rattus norvegicus, UniProt P33533) (P33533 whole entry): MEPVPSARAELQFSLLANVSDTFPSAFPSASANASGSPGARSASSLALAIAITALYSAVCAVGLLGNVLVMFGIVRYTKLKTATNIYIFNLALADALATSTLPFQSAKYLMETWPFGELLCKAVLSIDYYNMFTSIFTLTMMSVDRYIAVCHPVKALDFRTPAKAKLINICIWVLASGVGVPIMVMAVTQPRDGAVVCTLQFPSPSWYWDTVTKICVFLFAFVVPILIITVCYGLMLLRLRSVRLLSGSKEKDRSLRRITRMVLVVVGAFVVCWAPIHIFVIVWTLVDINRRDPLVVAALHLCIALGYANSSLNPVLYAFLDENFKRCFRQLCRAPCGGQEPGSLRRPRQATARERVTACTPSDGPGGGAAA

[2] = molecular target: T1, Kappa-type opioid receptor (Cavia porcellus, UniProt P41144); test: Displacement of [3H]U69,593 from kappa opioid receptor in guinea pig brain membranes by liquid scintillation counter method; type: cell membranes, Membrane
T1 sequence (P41144 whole entry): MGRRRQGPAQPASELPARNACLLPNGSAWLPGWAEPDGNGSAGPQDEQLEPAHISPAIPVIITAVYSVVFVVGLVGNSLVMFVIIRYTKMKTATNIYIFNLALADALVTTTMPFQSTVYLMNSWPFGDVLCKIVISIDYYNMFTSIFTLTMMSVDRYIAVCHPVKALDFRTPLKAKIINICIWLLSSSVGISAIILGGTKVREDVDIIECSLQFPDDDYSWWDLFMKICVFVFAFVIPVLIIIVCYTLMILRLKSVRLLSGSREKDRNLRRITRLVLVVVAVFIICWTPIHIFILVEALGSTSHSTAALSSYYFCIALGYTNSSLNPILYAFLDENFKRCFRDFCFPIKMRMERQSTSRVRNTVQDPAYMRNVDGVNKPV

Mus musculus [3] = test: Antinociceptive activity in CD-1 mouse mechanical stimulus-induced nociception model assessed as struggle response latency at 4 mg/kg, sc administered 30 mins prior to test in presence of centrally penetrant opioid antagonist Nx by paw pressure test; type: functional, organism-based
Mus musculus [4] = test: Antinociceptive activity in CD-1 mouse mechanical stimulus-induced nociception model assessed as struggle response latency at 4 mg/kg, sc administered 30 mins prior to test in presence of peripherally restricted opioid antagonist Nx-M by paw pressure test; type: functional, organism-based
Mus musculus [5] = test: Antinociceptive activity in CD-1 mouse mechanical stimulus-induced nociception model assessed as struggle response latency at 4 mg/kg, sc administered 30 mins prior to test in presence of sigma1 receptor agonist PRE-084 by paw pressure test; type: functional, organism-based
Mu-type opioid receptor [6] = molecular target: Mu-type opioid receptor (Rattus norvegicus, UniProt P33535); test: Displacement of [3H] DAMGO from mu opioid receptor in Sprague-Dawley rat whole brain membranes after 2.5 hrs by liquid scintillation method; design: species or system Membrane
Chain of Mu-type opioid receptor (Rattus norvegicus, UniProt P33535) (P33535 whole entry): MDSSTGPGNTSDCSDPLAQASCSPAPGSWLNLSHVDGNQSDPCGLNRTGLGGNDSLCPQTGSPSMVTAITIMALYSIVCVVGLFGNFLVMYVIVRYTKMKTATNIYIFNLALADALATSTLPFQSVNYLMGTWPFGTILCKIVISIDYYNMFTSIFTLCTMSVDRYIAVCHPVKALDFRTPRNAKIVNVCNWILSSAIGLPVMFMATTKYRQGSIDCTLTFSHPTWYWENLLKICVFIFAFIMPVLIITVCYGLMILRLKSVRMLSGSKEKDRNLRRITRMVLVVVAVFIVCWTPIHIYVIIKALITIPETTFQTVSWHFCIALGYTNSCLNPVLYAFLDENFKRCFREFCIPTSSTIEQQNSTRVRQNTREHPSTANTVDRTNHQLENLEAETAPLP

Mus musculus [7] = test: Antinociceptive activity in CD-1 mouse mechanical stimulus-induced nociception model assessed as struggle response latency at 2 to 8 mg/kg, sc administered 30 mins prior to test by paw pressure test; type: functional, organism-based
Mus musculus [8] = test: Analgesic activity in mouse administered subcutaneously by hot plate assay; details: sc
Mus musculus [9] = test: Antinociceptive activity in sc dosed CD-1 mouse mechanical stimulus-induced nociception model assessed as struggle response latency administered 30 mins prior to test by paw pressure test; type: functional, organism-based
Mus musculus [10] = test: Antinociceptive activity in CD-1 mouse mechanical stimulus-induced nociception model assessed as struggle response latency at 8 mg/kg, sc administered 30 mins prior to test in presence of centrally penetrant opioid antagonist Nx by paw pressure test; type: functional, organism-based
Mus musculus [11] = test: Antinociceptive activity in CD-1 mouse mechanical stimulus-induced nociception model assessed as struggle response latency at 8 mg/kg, sc administered 30 mins prior to test in presence of peripherally restricted opioid antagonist Nx-M by paw pressure test; type: functional, organism-based
Mus musculus [12] = test: Antinociceptive activity in CD-1 mouse mechanical stimulus-induced nociception model assessed as struggle response latency at 8 mg/kg, sc administered 30 mins prior to test in presence of sigma1 receptor agonist PRE-084 by paw pressure test; type: functional, organism-based
[13] = molecular target: Kappa-type opioid receptor (Homo sapiens, UniProt P41145); test: Binding affinity to kappa opioid receptor (unknown origin)
Chain of Kappa-type opioid receptor (Homo sapiens, UniProt P41145) (P41145 whole entry): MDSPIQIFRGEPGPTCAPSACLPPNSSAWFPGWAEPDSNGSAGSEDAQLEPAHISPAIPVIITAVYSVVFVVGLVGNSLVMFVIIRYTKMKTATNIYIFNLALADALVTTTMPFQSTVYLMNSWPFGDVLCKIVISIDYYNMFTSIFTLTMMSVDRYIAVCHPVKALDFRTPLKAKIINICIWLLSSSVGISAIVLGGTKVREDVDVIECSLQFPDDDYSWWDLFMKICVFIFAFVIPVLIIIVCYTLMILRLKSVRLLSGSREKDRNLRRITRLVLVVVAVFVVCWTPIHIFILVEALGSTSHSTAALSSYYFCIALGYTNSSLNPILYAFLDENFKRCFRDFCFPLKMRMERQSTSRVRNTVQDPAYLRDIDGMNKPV

[14] = molecular target: Delta-type opioid receptor (Homo sapiens, UniProt P41143); test: Binding affinity to delta opioid receptor (unknown origin)
Chain of Delta-type opioid receptor (Homo sapiens, UniProt P41143) (P41143 whole entry): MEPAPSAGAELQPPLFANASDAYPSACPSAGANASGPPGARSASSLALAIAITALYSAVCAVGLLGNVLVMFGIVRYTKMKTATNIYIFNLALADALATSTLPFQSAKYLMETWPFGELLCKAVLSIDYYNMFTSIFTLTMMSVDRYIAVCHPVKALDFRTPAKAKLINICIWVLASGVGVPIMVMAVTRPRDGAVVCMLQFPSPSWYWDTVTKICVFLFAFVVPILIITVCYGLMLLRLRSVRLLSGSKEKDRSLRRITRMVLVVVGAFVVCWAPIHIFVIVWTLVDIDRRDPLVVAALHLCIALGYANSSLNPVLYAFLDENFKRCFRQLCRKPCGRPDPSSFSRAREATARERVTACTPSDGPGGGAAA

Mus musculus [15] = test: Antinociceptive activity in CD-1 mouse mechanical stimulus-induced nociception model assessed as struggle response latency at 0.125 to 0.5 mg/kg, sc administered 30 mins prior to test by paw pressure test; type: functional, organism-based
Mus musculus [16] = test: Antinociceptive activity in CD-1 mouse mechanical stimulus-induced nociception model assessed as struggle response latency at 0.25 mg/kg, sc administered 30 mins prior to test in presence of centrally penetrant opioid antagonist Nx by paw pressure test; type: functional, organism-based
Mus musculus [17] = test: Antinociceptive activity in CD-1 mouse mechanical stimulus-induced nociception model assessed as struggle response latency at 0.25 mg/kg, sc administered 30 mins prior to test in presence of peripherally restricted opioid antagonist Nx-M by paw pressure test; type: functional, organism-based
Mus musculus [18] = test: Antinociceptive activity in CD-1 mouse mechanical stimulus-induced nociception model assessed as struggle response latency at 0.25 mg/kg, sc administered 30 mins prior to test in presence of sigma1 receptor agonist PRE-084 by paw pressure test; type: functional, organism-based
Mus musculus [19] = test: Antinociceptive activity in CD-1 mouse mechanical stimulus-induced nociception model assessed as struggle response latency time at 0.5 mg/kg, sc administered 30 mins prior to test by paw pressure test; type: functional
Mus musculus [20] = test: Antinociceptive activity in CD-1 mouse mechanical stimulus-induced nociception model assessed as struggle response latency time at 0.5 mg/kg, sc administered 30 mins prior to test in presence of centrally penetrant opioid antagonist Nx by paw pressure test; type: functional, organism-based
Mus musculus [21] = test: Antinociceptive activity in CD-1 mouse mechanical stimulus-induced nociception model assessed as struggle response latency time at 0.5 mg/kg, sc administered 30 mins prior to test in presence of peripherally restricted opioid antagonist Nx-M by paw pressure test; type: functional, organism-based
Mus musculus [22] = test: Antinociceptive activity in CD-1 mouse mechanical stimulus-induced nociception model assessed as struggle response latency time at 0.5 mg/kg, sc administered 30 mins prior to test in presence of sigma1 receptor agonist PRE-084 by paw pressure test; type: functional, organism-based
[23] = molecular target: Sigma non-opioid intracellular receptor 1 (Mus musculus, UniProt O55242); test: Displacement of [3H]-(+)-pentazocin from sigma1 receptor in mouse brain P2 membranes after 240 mins by liquid scintillation counting method; type: cell membranes
Chain of Sigma non-opioid intracellular receptor 1 (O55242 whole entry): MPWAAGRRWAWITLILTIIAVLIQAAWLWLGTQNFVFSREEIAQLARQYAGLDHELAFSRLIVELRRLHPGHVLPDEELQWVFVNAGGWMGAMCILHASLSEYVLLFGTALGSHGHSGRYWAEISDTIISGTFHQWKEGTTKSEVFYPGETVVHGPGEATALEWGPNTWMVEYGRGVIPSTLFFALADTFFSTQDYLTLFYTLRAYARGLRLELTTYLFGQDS

Mu-type opioid receptor [24] = molecular target: Mu-type opioid receptor (Cavia porcellus, UniProt P97266); test: Displacement of [3H]-[D-Ala2,MePhe4Gly-ol5]enkephalin from mu opioid receptor in guinea pig brain membranes after 40 mins; type: cell membranes, Membrane
Chain of Mu-type opioid receptor (Cavia porcellus, UniProt P97266) (P97266 whole entry): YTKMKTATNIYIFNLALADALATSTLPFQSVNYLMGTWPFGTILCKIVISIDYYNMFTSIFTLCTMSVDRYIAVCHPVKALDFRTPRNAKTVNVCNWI

[25] = Displacement of [3H]-[D-Ala2,D-Leu5]enkephalin from delta opioid receptor in guinea pig brain membranes after 40 mins; type: cell membranes, Cavia porcellus, Membrane
[26] = molecular target: T1, Kappa-type opioid receptor; test: Displacement of [3H]-Ethylketazocine from kappa opioid receptor in guinea pig brain membranes after 40 mins; type: cell membranes, Membrane

## C[C@@H]1[C@@H]2Cc3ccc(O)cc3[C@@]1(C)CCN2CCc1ccccc1
[1]
  Ki: 123 nM
[2]
  Ki: 175 nM
Mus musculus [3]
  Activity: inactive
Mus musculus [4]
  Activity: inactive
Mus musculus [5]
  Activity: inactive
Mu-type opioid receptor [6]
  Ki: 3.9 nM
Mus musculus [7]
  Activity: Active

## CN1CC[C@]23c4c5ccc(O)c4O[C@H]2[C@@H](O)C=C[C@H]3[C@H]1C5 [MORPHINE]
Mus musculus [8]
  ED50: 6.7 mg/kg
Mus musculus [9]
  Activity: Dose-dependent effect
Mus musculus [10]
  Activity: inactive
Mus musculus [11]
  Activity: Active
Mus musculus [12]
  Activity: Active

## O=C(OCCN1CCOCC1)C1(c2ccccc2)CCCCC1
[13]
  Ki: > 4000 nM
[14]
  Ki: > 4000 nM

## C[C@H]1[C@H]2Cc3ccc(O)cc3[C@]1(C)CCN2CCc1ccccc1
Mus musculus [15]
  Activity: Active
Mus musculus [16]
  Activity: inactive
Mus musculus [17]
  Activity: inactive
Mus musculus [18]
  Activity: inactive
Mus musculus [19]
  Time: 20 s
Mus musculus [20]
  Activity: inactive
Mu-type opioid receptor [6]
  Ki: 61.7 nM
Mus musculus [21]
  Activity: inactive
Mus musculus [22]
  Activity: inactive

## C=CC[N+]1(C)CC[C@]23c4c5ccc(O)c4O[C@H]2C(=O)CC[C@@]3(O)[C@H]1C5 (some centres not stated) [NALOXONE METHIODIDE]
[23]
  Ki: > 1000 nM
Mu-type opioid receptor [24]
  Ki: 18.2 nM
[25]
  Ki: 291 nM
[26]
  Ki: 187 nM
